Source: patent EP3807270B1, “NOVEL HETEROARYL HETEROCYCLYL COMPOUNDS FOR THE TREATMENT OF AUTOIMMUNE DISEASE” (F. Hoffmann-La Roche AG, priority 2018, dated 2019)

Legend:
hTLR9 = target: T1, hTLR9 (Homo sapiens, UniProt Q9NR96); design: host or cells: HEK; settings: data disclosed in US20150105370; read-out: HEK/hTLR9 IC50; cited from earlier work
T1 sequence (Q9NR96 26-1032): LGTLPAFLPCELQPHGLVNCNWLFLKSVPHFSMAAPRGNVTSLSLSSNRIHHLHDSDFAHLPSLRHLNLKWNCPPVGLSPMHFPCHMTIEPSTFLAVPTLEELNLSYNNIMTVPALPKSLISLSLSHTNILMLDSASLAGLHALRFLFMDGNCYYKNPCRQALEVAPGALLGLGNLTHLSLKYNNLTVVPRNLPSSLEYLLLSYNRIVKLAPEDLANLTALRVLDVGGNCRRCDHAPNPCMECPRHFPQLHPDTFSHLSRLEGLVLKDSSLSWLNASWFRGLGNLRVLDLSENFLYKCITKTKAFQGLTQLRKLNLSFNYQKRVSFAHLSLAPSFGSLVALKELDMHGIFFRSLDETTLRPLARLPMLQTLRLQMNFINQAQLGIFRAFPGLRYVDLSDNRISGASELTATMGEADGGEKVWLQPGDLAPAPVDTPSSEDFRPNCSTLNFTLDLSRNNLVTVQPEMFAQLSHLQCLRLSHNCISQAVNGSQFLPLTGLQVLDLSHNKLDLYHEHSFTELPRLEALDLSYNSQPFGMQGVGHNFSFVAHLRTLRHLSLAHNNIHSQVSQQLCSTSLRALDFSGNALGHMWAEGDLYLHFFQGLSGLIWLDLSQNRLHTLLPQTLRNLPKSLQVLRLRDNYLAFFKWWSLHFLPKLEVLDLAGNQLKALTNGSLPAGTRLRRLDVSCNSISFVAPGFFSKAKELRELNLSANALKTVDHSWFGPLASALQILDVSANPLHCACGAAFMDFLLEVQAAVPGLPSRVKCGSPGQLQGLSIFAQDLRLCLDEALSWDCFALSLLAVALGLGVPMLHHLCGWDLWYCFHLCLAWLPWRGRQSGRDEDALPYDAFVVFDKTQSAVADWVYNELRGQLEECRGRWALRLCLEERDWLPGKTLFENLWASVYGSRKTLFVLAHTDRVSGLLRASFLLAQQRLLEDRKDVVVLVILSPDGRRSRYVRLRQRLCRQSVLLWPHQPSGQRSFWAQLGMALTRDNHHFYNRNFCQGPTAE

hTLR7 = target: T2, hTLR7 (Homo sapiens, UniProt Q9NYK1); design: host or cells: HEK; settings: data disclosed in US20150105370; read-out: HEK/hTLR7 IC50; cited from earlier work
T2 sequence (Q9NYK1 27-1049): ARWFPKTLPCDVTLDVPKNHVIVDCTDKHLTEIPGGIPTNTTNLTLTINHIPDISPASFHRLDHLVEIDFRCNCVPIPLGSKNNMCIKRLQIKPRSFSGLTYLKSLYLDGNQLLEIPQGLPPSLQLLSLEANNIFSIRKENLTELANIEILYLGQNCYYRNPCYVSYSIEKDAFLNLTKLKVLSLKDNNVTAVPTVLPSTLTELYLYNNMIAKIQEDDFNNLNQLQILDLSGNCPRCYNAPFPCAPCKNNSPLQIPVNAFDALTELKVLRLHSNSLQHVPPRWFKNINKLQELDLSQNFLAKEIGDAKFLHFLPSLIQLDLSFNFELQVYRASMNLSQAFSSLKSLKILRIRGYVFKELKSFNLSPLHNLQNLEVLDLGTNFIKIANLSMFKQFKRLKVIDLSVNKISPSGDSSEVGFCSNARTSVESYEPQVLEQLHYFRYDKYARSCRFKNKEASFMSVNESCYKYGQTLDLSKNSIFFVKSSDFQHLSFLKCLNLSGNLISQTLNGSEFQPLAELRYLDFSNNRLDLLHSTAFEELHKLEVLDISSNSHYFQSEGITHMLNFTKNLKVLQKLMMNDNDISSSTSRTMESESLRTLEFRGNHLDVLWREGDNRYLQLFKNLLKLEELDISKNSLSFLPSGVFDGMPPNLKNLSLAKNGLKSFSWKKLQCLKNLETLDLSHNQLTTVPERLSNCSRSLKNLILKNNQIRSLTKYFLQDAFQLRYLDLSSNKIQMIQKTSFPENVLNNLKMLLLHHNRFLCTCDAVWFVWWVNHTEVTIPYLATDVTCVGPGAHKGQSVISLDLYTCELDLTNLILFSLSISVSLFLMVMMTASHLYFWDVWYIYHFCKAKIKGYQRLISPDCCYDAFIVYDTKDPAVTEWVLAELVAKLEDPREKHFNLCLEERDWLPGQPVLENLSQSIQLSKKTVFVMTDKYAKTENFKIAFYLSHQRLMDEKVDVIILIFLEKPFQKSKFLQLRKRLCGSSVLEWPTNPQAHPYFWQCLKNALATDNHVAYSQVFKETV

[1] = Human microsome stability assay; type: in vitro ADME; settings: 1 µM test compound, 0.5 mg/mL liver microsomal protein, 37 °C
Method: The human microsomal stability assay is used for early assessment of metabolic stability of a test compound in human liver microsomes.
Human liver microsomes (Cat.NO.: 452117, Corning, USA;Cat.NO.:H2610, Xenotech, USA) were preincubated with test compound for 10 minutes at 37 °C in 100 mM potassium phosphate buffer, pH 7.4. The reactions were initiated by adding NADPH regenerating system. The final incubation mixtures contained 1 µM test compound, 0.5 mg/mL liver microsomal protein, 1 mM MgClz, 1 mM NADP, 1 unit/mL isocitric dehydrogenase and 6 mM isocitric acid in 100 mM potassium phosphate buffer, pH 7.4. After incubation times of 0, 3, 6, 9, 15 and 30 minutes at 37 °C, 300 µL of cold acetonitrile (including internal standard) was added to 100 µL incubation mixture to terminate the reaction. Following precipitation and centrifugation, the amount of compound remaining in the samples were determined by LC-MS/MS. Controls of no NADPH regenerating system at zero and 30 minutes were also prepared and analyzed. […] Table 6. Human liver microsome stability of the compounds of present invention

CYP2D6 = target: T3, CYP2D6 (Homo sapiens, UniProt P10635); assay: CYP inhibition assay in human liver microsome; type: in vitro ADME; settings: human liver microsomes, probe dextromethorphan, 10µM test compound, dextromethorphan substrate, <0: not or weak inhibitor, read-out: CYP 2D6 inhibition %@10µM
T3 construct: tissue BD-Gentest 452117; host or cells: human liver microsomes
T3 sequence (P10635 whole entry): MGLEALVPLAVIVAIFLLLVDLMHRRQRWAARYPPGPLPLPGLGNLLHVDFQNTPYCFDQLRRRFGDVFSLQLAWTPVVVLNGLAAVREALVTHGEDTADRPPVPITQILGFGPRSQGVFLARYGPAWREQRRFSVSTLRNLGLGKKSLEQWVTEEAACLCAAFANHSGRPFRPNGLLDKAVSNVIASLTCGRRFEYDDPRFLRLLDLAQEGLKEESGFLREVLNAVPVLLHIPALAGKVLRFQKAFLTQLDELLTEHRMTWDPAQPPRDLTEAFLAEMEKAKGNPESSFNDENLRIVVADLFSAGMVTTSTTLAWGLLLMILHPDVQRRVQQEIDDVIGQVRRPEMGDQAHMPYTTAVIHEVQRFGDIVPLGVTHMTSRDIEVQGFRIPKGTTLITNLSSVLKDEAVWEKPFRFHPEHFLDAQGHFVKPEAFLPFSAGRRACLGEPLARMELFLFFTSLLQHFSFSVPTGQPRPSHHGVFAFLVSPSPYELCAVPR
Method: This is a high throughput screening assay used for assessment of reversible inhibition of CYP2D6 activity of test compounds in human liver microsome (HLM) in early discovery stage. Table 4. Chemicals and materials used in the CYP inhibition assay
10 mM DMSO stock solutions of test compounds were diluted in DMSO to generate 2 mM intermediate stock solution. 250 nL of intermediate stock solution were transferred in duplicate into 3 separate 384 well microtitre plates (assay-ready plates). A mixture of HLM and each substrate was made up. 45 µL of HLM substrate mix was then transferred to each well of an assay ready plate and mixed. The negative (solvent) and positive control (standard inhibitor for CYP 2D6) were included in each assay ready plate. The assay ready plate was warmed to 37 °C in an incubator over 10 minutes. 5 µL pre-warmed NADPH regenerating system was added to each incubation well to start the reaction. Final incubation volume was 50 µL. The assay plate then was placed back in the 37 °C incubator. After 10-minute incubation, incubates were quenched by addition of 50 µL 100% acetonitrile containing internal standards (20 ng/mL D3-Dextrorphan). The supernatants were collected for RapidFire/MS/MS analysis.
RapidFire online solid phase extraction/sample injection system (Agilent) coupled with API4000 triple quadrupole mass spectrometer (AB Sciex) were used for sample analysis. The mobile phase composed of acetonitrile and water supplemented with 0.1% formic acid. A C4 solid phase extraction cartridge is used for sample separation. MS detection is achieved in positive ion MRM mode.
Peak areas for substrate, metabolite and internal standard are determined using the RapidFire integrator software (version 3.6.12009.12296). Peak area ratios (PAR) of metabolite and internal standard (stable-labelled metabolite) are then calculated. The measurement window for each experiment is then defined: • PAR (0% activity)= average PAR for all incubations containing concentrated inhibitor; • Par (100% activity)= average PAR for all incubations containing no inhibitor (DMSO controls); • % Activity (test inhibitor) • =[PAR(test inhibitor)-PAR(0% activity)]/[PAR(100% activity)-PAR(0% activity)]; • % Inhibition (test inhibitor)=100-% Activity (test inhibitor).

C[C@@H]1CN(c2ccc(C#N)c3ncccc23)C[C@H](CN2CC(NS(=O)(=O)c3ccc(F)cc3)C2)O1 [ER-894155]
IC50 (hTLR9): > 10 µM | IC50 (hTLR7): 0.282 µM

Cc1nn(C)cc1S(=O)(=O)NC1CCN(C[C@H]2CN(c3ccc(C#N)c4ncccc34)C[C@@H](C)O2)CC1 [ER-894160]
IC50 (hTLR9): > 10 µM | IC50 (hTLR7): 0.199 µM

C[C@@H]1CN(c2ccc(C#N)c3ncccc23)C[C@H](CN2CC[C@@H](NC(=O)c3ccccc3)C2)O1 [ER-894544]
IC50 (hTLR9): > 6.2 µM | IC50 (hTLR7): 0.043 µM

C[C@@H]1CN(c2ccc(C#N)c3ncnn23)C[C@H](CN2CCN(c3cnc4c(c3)CNCC4)CC2)O1 [Example 27, 5-[(2R,6S)-2-methyl-6-[[4-(5,6,7,8-tetrahydro-1,6-naphthyridin-3-yl)piperazin-1-yl]methyl]morpholin-4-yl]-[1,2,4]triazolo[1,5-a]pyridine-8-carbonitrile]
Clearance of Human microsome [1]: 7.28 mL/min/kg

C[C@@H]1CN(c2ccc(C#N)c3ncccc23)C[C@H](CN2CC3COCC(C2)N3c2cnc3c(c2)CNC3)O1 [Example 37, 5-[(2S,6R)-2-[[9-(6,7-dihydro-5H-pyrrolo[3,4-b]pyridin-3-yl)-3-oxa-7,9-diazabicyclo[3.3.1]nonan-7-yl]methyl]-6-methyl-morpholin-4-yl]quinoline-8-carbonitrile]
Clearance of Human microsome [1]: 6.72 mL/min/kg

COc1ccc(N2C[C@H](CN3CCN(c4cc5c(cn4)CCNC5)CC3)O[C@H](C)C2)c2nccnc12 [Example 89, (2R,6S)-4-(8-methoxyquinoxalin-5-yl)-2-methyl-6-[[4-(5,6,7,8-tetrahydro-2,6-naphthyridin-3-yl)piperazin-1-yl]methyl]morpholine]
Clearance of Human microsome [1]: 6.54 mL/min/kg

Cc1cnc2c(C#N)ccc(N3C[C@H](CN4CCN(c5cc6c(cn5)CCNC6)CC4)O[C@H](C)C3)c2n1 [Example 90, 2-methyl-8-[(2R,6S)-2-methyl-6-[[4-(5,6,7,8-tetrahydro-2,6-naphthyridin-3-yl)piperazin-1-yl]methyl]morpholin-4-yl]quinoxaline-5-carbonitrile]
inhibition at 10 min, 10 µM (CYP2D6): 5%

C[C@@H]1CN(c2ccc(C(F)(F)F)c3nccnc23)C[C@H](CN2CCN(c3cc4c(cn3)CCNC4)CC2)O1 [Example 91, (2R,6S)-2-methyl-6-[[4-(5,6,7,8-tetrahydro-2,6-naphthyridin-3-yl)piperazin-1-yl]methyl]-4-[8-(trifluoromethyl)quinoxalin-5-yl]morpholine]
inhibition at 10 min, 10 µM (CYP2D6): 14%

C[C@@H]1CN(c2cc(=O)n(C)c3ncccc23)C[C@H](CN2CCN(c3ccc4c(n3)CN[C@@H]4C)CC2)O1 [Example 100, 1-methyl-4-[(2R,6S)-2-methyl-6-[[4-[(5R)-5-methyl-6,7-dihydro-5H-pyrrolo[3,4-b]pyridin-2-yl]piperazin-1-yl]methyl]morpholin-4-yl]-1,8-naphthyridin-2-one]
Clearance of Human microsome [1]: 8.54 mL/min/kg

CCn1c(=O)cc(N2C[C@H](CN3CCN(c4ccc5c(n4)CN[C@@H]5C)CC3)O[C@H](C)C2)c2cccnc21 [Example 101, 1-ethyl-4-[(2R,6S)-2-methyl-6-[[4-[(5R)-5-methyl-6,7-dihydro-5H-pyrrolo[3,4-b]pyridin-2-yl]piperazin-1-yl]methyl]morpholin-4-yl]-1,8-naphthyridin-2-one]
Clearance of Human microsome [1]: 6.67 mL/min/kg

C[C@@H]1CN(c2cc(=O)n(C)c3ncccc23)C[C@H](CN2CCN(c3cc4c(cn3)CCNC4)CC2)O1 [Example 103, 1-methyl-4-[(2R,6S)-2-methyl-6-[[4-(5,6,7,8-tetrahydro-2,6-naphthyridin-3-yl)piperazin-1-yl]methyl]morpholin-4-yl]-1,8-naphthyridin-2-one]
Clearance of Human microsome [1]: 6.15 mL/min/kg
